18 compounds from US9956220B2, “Imidazo-pyridazine derivatives as casein kinase 1 δ/ϵ inhibitors” (Bristol-Myers Squibb Company, priority 2014, dated 2018) can be followed below.

In one experiment the target is CK1δ (Homo sapiens, UniProt P48730). Put plainly: CK1δ kinase assay (Caliper LABCHIP electrophoretic separation of fluoresceinated peptide substrate and product). The experiment is classed as biochemical. To be noted: 200 pM CK1δ, 50 μM ATP, 1.5 μM peptide substrate, 22 hours at room temperature. As to the method: (§1) CK1ϵ and CK1δ Kinase Assays
(§2) The kinase assay was performed in V-bottom 384-well plates.
(§3) The reaction was incubated at room temperature for 22 hours and terminated by adding 45 μl of 35 mM EDTA to each sample. The reaction mixture was analyzed on the Caliper LABCHIP®3000 (Caliper, Hopkinton, Mass.) by electrophoretic separation of the unphosphorylated substrate and phosphorylated product. […] Compounds were dissolved at 10 mM in dimethylsulfoxide (DMSO) and evaluated at eleven concentrations. IC50 values were derived by non-linear regression analysis.

The next experiment has as its target CK1ϵ (Homo sapiens, UniProt P49674). As to the kind of experiment: CK1ϵ kinase assay (Caliper LABCHIP electrophoretic separation of fluoresceinated peptide substrate and product). The class given is biochemical. Conditions: 200 pM CK1ϵ, 50 μM ATP, 1.5 μM peptide substrate, 22 hours at room temperature; read-out: CK1ε (IC50). As to the method:
as §1, §2, §3

Sequence of CK1δ (P48730 whole entry): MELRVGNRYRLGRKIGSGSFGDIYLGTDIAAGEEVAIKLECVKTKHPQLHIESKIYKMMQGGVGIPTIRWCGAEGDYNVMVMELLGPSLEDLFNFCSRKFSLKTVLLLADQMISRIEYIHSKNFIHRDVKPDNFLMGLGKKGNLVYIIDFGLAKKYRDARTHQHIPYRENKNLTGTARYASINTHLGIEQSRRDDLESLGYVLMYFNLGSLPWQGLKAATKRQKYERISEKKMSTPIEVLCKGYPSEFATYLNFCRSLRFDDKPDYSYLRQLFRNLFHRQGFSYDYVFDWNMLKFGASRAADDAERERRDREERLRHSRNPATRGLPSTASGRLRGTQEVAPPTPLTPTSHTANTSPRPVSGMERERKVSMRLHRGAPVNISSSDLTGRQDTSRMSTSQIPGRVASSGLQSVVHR
Sequence of CK1ϵ (P49674 whole entry): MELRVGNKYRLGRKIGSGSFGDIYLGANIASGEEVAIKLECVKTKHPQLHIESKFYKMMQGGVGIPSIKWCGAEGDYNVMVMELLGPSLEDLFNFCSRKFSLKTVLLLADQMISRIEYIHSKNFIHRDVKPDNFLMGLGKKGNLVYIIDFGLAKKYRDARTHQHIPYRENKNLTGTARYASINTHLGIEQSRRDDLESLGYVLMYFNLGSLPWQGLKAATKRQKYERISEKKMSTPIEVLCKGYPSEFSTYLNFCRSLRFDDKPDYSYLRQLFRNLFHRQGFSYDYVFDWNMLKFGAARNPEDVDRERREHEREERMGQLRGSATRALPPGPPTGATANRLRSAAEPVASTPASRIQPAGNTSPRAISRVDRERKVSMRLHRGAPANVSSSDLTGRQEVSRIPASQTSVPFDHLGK

Regarding `CC(=O)N1CCn2nc(-c3ccc(F)cc3)c(-c3ccc4nc(NC(=O)c5ccnc(F)c5)cn4n3)c2C1` [Example 12, N-(6-(5-Acetyl-2-(4-fluorophenyl)-4,5,6,7-tetrahydropyrazolo[1,5-a]pyrazin-3-yl)imidazo[1,2-b]pyridazin-2-yl)-2-fluoroisonicotinamide], the IC50 against CK1δ came to 0.3 nM; at CK1ϵ, 2 nM.
Regarding `CC(C)NC(=O)N1CCn2nc(-c3ccc(F)cc3)c(-c3ccc4nc(NC(=O)c5ccnc(F)c5)cn4n3)c2C1` [Example 42, 3-(2-(2-Fluoroisonicotinamido)imidazo[1,2-b]pyridazin-6-yl)-2-(4-fluorophenyl)-N-isopropyl-6,7-dihydropyrazolo[1,5-a] pyrazine-5(4H)-carboxamide], the IC50 against CK1δ amounted to 0.8 nM; at CK1ϵ, 9.5 nM.
Taken in the same sequence, the figures for `O=C(Nc1cn2nc(-c3c(-c4ccc(F)cc4)nn4c3CCC4)ccc2n1)c1ccccc1` [Example 68, N-(6-(2-(4-Fluorophenyl)-5,6-dihydro-4H-pyrrolo[1,2-b]pyrazol-3-yl)imidazo[1,2-b]pyridazin-2-yl)benzamide] were 0.3 nM and 3.6 nM.
As to `O=C(Nc1cn2nc(-c3c(-c4ccc(F)cc4)noc3C3CCOCC3)ccc2n1)c1ccnc(F)c1` [Example 69, 2-Fluoro-N-(6-(3-(4-fluorophenyl)-5-(tetrahydro-2H-pyran-4-yl)isoxazol-4-yl)imidazo[1,2-b]pyridazin-2-yl)isonicotinamide], the results for the IC50 at CK1δ and on CK1ϵ were 1.4 nM and 27.9 nM, respectively.
Taken in the same sequence, the figures for `O=C(Nc1cn2nc(-c3c(-c4ccc(F)cc4)nn4c3CN(C(=O)c3cccnc3)CC4)ccc2n1)c1ccnc(F)c1` [Example 21, 2-Fluoro-N-(6-(2-(4-fluorophenyl)-5-nicotinoyl-4,5,6,7-tetrahydropyrazolo[1,5-a]pyrazin-3-yl)imidazo[1,2-b]pyridazin-2-yl) isonicotinamide] were 0.2 nM and 3 nM.
Taken in the same sequence, the figures for `O=C(Nc1cn2nc(-c3c(-c4ccc(F)cc4)nn4c3COCC4)ccc2n1)c1ccncc1` [Example 54, N-(6-(2-(4-Fluorophenyl)-6,7-dihydro-4H-pyrazolo[5,1-c][1,4]oxazin-3-yl)imidazo[1,2-b]pyridazin-2-yl)isonicotinamide] were 0.3 nM and 2.6 nM.
The matching figures for `O=C(Nc1cn2nc(-c3c(-c4ccc(F)cc4)nn4c3CCC4)ccc2n1)c1ccncc1` [Example 67, N-(6-(2-(4-Fluorophenyl)-5,6-dihydro-4H-pyrrolo[1,2-b]pyrazol-3-yl)imidazo[1,2-b]pyridazin-2-yl) isonicotinamide]: 0.4 nM and 3.6 nM.
`O=C(Nc1cn2nc(-c3c(-c4ccc(F)cc4)nn4c3COCC4)ccc2n1)c1ccnc(N2CCOCC2)c1` [Example 55, N-(6-(2-(4-Fluorophenyl)-6,7-dihydro-4H-pyrazolo[5,1-c][1,4]oxazin-3-yl)imidazo[1,2-b]pyridazin-2-yl)-2-morpholinoisonicotinamide]: the figures for the IC50 against CK1δ and on CK1ϵ were 0.3 nM and 2.4 nM, respectively.
In the case of `CC(C)C(=O)N1CCn2nc(-c3ccc(F)cc3)c(-c3ccc4nc(NC(=O)c5ccnc(F)c5)cn4n3)c2C1` [Example 22, 2-Fluoro-N-(6-(2-(4-fluorophenyl)-5-isobutyryl-4,5,6,7-tetrahydropyrazolo[1,5-a]pyrazin-3-yl)imidazo[1,2-b]pyridazin-2-yl) isonicotinamide], the IC50 at CK1δ was 0.6 nM; on CK1ϵ, 3.1 nM.
The matching figures for `O=C(Nc1cn2nc(-c3c(-c4ccc(F)cc4)nn4c3CN(C(=O)CC(F)(F)F)CC4)ccc2n1)c1ccnc(F)c1` [Example 15, 2-Fluoro-N-(6-(2-(4-fluorophenyl)-5-(3,3,3-trifluoropropanoyl)-4,5,6,7-tetrahydropyrazolo [1,5-a]pyrazin-3-yl)imidazo[1,2-b]pyridazin-2-yl)isonicotinamide]: 0.2 nM and 0.7 nM.
The matching figures for `O=C(Nc1cn2nc(-c3c(-c4ccc(F)cc4)nn4c3CN(S(=O)(=O)c3ccc(F)cc3)CC4)ccc2n1)c1ccnc(F)c1` [Example 37, 2-Fluoro-N-(6-(2-(4-fluorophenyl)-5-((4-fluorophenyl)sulfonyl)-4,5,6,7-tetrahydropyrazolo [1,5-a]pyrazin-3-yl)imidazo [1,2-b]pyridazin-2-yl) isonicotinamide]: 1.1 nM and 14 nM.
On to `O=C(Nc1cn2nc(-c3c(-c4ccc(F)cc4)nn4ccccc34)ccc2n1)c1cc(F)nc(F)c1` [Example 61, 2,6-Difluoro-N-(6-(2-(4-fluorophenyl)pyrazolo[1,5-a]pyridin-3-yl)imidazo[1,2-b]pyridazin-2-yl)isonicotinamide], for which the IC50 against CK1δ was found to be 19.5 nM; on CK1ϵ, 137 nM.
The matching figures for `O=C(Nc1cn2nc(-c3c(-c4ccc(F)cc4)nn4c3COCC4)ccc2n1)c1cc(F)nc(F)c1` [Example 56, 2,6-Difluoro-N-(6-(2-(4-fluorophenyl)-6,7-dihydro-4H-pyrazolo[5,1-c][1,4]oxazin-3-yl)imidazo[1,2-b]pyridazin-2-yl) isonicotinamide]: 0.3 nM and 4 nM.
For `O=C(Nc1cn2nc(-c3c(-c4ccc(F)cc4)nn4c3CN(CCC(F)(F)F)CC4)ccc2n1)c1ccnc(F)c1` [Example 27, 2-Fluoro-N-(6-(2-(4-fluorophenyl)-5-(3,3,3-trifluoropropyl)-4,5,6,7-tetrahydropyrazolo[1,5-a]pyrazin-3-yl)imidazo[1,2-b]pyridazin-2-yl)isonicotinamide], the half-maximal inhibitory concentration (IC50) at CK1δ was found to be 0.5 nM; at CK1ϵ, 3.6 nM.
Taken in the same sequence, the figures for `O=C(Nc1cn2nc(-c3c(-c4ccc(F)cc4)nn4c3CN(C(=O)c3ccc(F)c(F)c3)CC4)ccc2n1)c1ccnc(F)c1` [Example 18, N-(6-(5-(3,4-Difluorobenzoyl)-2-(4-fluorophenyl)-4,5,6,7-tetrahydropyrazolo[1,5-a]pyrazin-3-yl)imidazo[1,2-b]pyridazin-2-yl)-2-fluoroisonicotinamide] were 0.5 nM and 5.6 nM.
Taken in the same sequence, the figures for `N#CCC(=O)N1CCn2nc(-c3ccc(F)cc3)c(-c3ccc4nc(NC(=O)c5ccnc(F)c5)cn4n3)c2C1` [Example 24, N-(6-(5-(2-Cyanoacetyl)-2-(4-fluorophenyl)-4,5,6,7-tetrahydropyrazolo[1,5-a]pyrazin-3-yl)imidazo[1,2-b]pyridazin-2-yl)-2-fluoroisonicotinamide] were 0.4 nM and 2.9 nM.
Take `O=C(Nc1cn2nc(-c3c(-c4ccc(F)cc4)nn4c3CN(C(=O)c3ccc(F)cc3)CC4)ccc2n1)c1ccnc(F)c1` [Example 14, 2-Fluoro-N-(6-(5-(4-fluorobenzoyl)-2-(4-fluorophenyl)-4,5,6,7-tetrahydropyrazolo[1,5-a]pyrazin-3-yl)imidazo[1,2-b]pyridazin-2-yl) isonicotinamide]: the concentration for half-maximal inhibition (IC50) against CK1δ was 0.5 nM; at CK1ϵ, 3.1 nM.
For the compound `Nc1cc(C(=O)Nc2cn3nc(-c4c(-c5ccc(F)cc5)nn5c4COCC5)ccc3n2)ccn1` [Example 58, 2-Amino-N-(6-(2-(4-fluorophenyl)-6,7-dihydro-4H-pyrazolo[5,1-c][1,4]oxazin-3-yl)imidazo[1,2-b]pyridazin-2-yl) isonicotinamide], the concentration for half-maximal inhibition (IC50) against CK1δ was 0.2 nM; at CK1ϵ, 2.7 nM.
